Measurements taken from ChEMBL document CHEMBL3046653, “Synthesis and evaluation of DPPH and anti-inflammatory activities of 2,6-bisbenzylidenecyclohexanone and pyrazoline derivatives” (Med Chem Res, 2012).

What was measured:
[1] = Antioxidant activity assessed as DPPH scavenging activity after 30 min by spectrophotometry; assay type: functional
RAW264.7 [2] = experiment: Anti-inflammatory activity in Mus musculus (mouse) RAW264.7 cells assessed as inhibition of IFN-gamma/LPS-induced nitric oxide production after 17 to 20 hr by Griess assay; assay type: functional, cell-based
RAW264.7 [3] = experiment: Cytotoxicity against Mus musculus (mouse) RAW264.7 cells at IC50 for NO production by MTT assay; assay type: cell-based
RAW264.7 [4] = experiment: Cytotoxicity against Mus musculus (mouse) RAW264.7 cells at >50 uM by MTT assay; assay type: cell-based
RAW264.7 [5] = experiment: Cytotoxicity against Mus musculus (mouse) RAW264.7 cells at 25 uM by MTT assay; assay type: cell-based; settings: raw264.7, 25 µM

| IC50 [1] [µM] | IC50 (RAW264.7 [2]) [µM] | SMILES | Activity (RAW264.7 [3]) | Activity (RAW264.7 [4]) | Activity (RAW264.7 [5]) |
| --- | --- | --- | --- | --- | --- |
| 13.3 | 9.43 | O=C1/C(=C/c2ccc(O)c(O)c2)CCC/C1=C\c1ccc(O)c(O)c1 |  |  |  |
| ≥ 100 | ≥ 50 | COc1cc(/C=C2\CC/C(=C\c3ccc(OC(C)=O)c(OC)c3)C2=O)ccc1OC(C)=O |  |  |  |
| ≥ 100 | ≥ 50 | CC(=O)Oc1ccc(/C=C2\CC/C(=C\c3ccc(OC(C)=O)c(OC(C)=O)c3)C2=O)cc1OC(C)=O |  |  |  |
| ≥ 100 | 13.3 | COc1cc(/C=C2\CCC/C(=C\c3ccc(OC(C)=O)c(OC)c3)C2=O)ccc1OC(C)=O |  |  |  |
| ≥ 100 | 8.02 | CCC(=O)Oc1ccc(/C=C2\CCC/C(=C\c3ccc(OC(=O)CC)c(OC)c3)C2=O)cc1OC |  |  |  |
| ≥ 100 | 6.84 | CC(=O)Oc1ccc(/C=C2\CCC/C(=C\c3ccc(OC(C)=O)c(OC(C)=O)c3)C2=O)cc1OC(C)=O |  |  |  |
|  | 12.2 | COc1cc(/C=C2\CCCC3C2=NNC3c2ccc(O)c(OC)c2)ccc1O (stereo not drawn) | Non-toxic | Toxic |  |
|  | 26.9 | Oc1ccc(/C=C2\CCCC3C2=NNC3c2ccc(O)cc2)cc1 (stereo not drawn) |  |  |  |
|  | 38.7 | COc1ccc(/C=C2\CCCC3C2=NNC3c2ccc(OC)c(OC)c2)cc1OC (stereo not drawn) |  |  |  |
|  | ≥ 50 | O=[N+]([O-])c1ccc(/C=C2\CCCC3C2=NNC3c2ccc([N+](=O)[O-])cc2)cc1 (stereo not drawn) |  |  |  |
|  | ≥ 50 | Fc1ccc(/C=C2\CCCC3C2=NNC3c2ccc(F)cc2)cc1 (stereo not drawn) |  |  |  |
|  | ≥ 50 | COc1cc(/C=C2\CCCC3C2=NN(C(C)=O)C3c2ccc(OC(C)=O)c(OC)c2)ccc1OC(C)=O (stereo not drawn) |  |  |  |
|  | ≥ 50 | COc1ccc(/C=C2\CCCC3C2=NN(C(C)=O)C3c2ccc(OC)c(OC)c2)cc1OC (stereo not drawn) |  |  |  |
|  | ≥ 50 | CC(=O)N1N=C2/C(=C/c3ccc([N+](=O)[O-])cc3)CCCC2C1c1ccc([N+](=O)[O-])cc1 (stereo not drawn) |  |  |  |
|  | ≥ 50 | CC(=O)N1N=C2/C(=C/c3ccc(F)cc3)CCCC2C1c1ccc(F)cc1 (stereo not drawn) |  |  |  |
|  | 47.1 | COc1cc(/C=C2\CCCC3C2=NN(C(=O)c2ccccc2)C3c2ccc(O)c(OC)c2)ccc1O (stereo not drawn) |  |  |  |
|  | 25.1 | COc1ccc(/C=C2\CCCC3C2=NN(C(=O)c2ccccc2)C3c2ccc(OC)c(OC)c2)cc1OC (stereo not drawn) |  |  |  |

| IC50 [1] [µM] | IC50 (RAW264.7 [2]) [µM] | SMILES | Activity (RAW264.7 [3]) | Activity (RAW264.7 [4]) | Activity (RAW264.7 [5]) |
| --- | --- | --- | --- | --- | --- |
|  | ≥ 50 | O=C(c1ccccc1)N1N=C2/C(=C/c3ccc([N+](=O)[O-])cc3)CCCC2C1c1ccc([N+](=O)[O-])cc1 (stereo not drawn) |  |  |  |
|  | ≥ 50 | O=C(c1ccccc1)N1N=C2/C(=C/c3ccc(F)cc3)CCCC2C1c1ccc(F)cc1 (stereo not drawn) |  |  |  |
| ≥ 100 | ≥ 50 | O=C1/C(=C/c2cccc(O)c2)CC/C1=C\c1cccc(O)c1 |  |  |  |
| 50.6 | ≥ 50 | O=C1/C(=C/c2ccc(O)cc2O)CC/C1=C\c1ccc(O)cc1O |  |  |  |
| 20.7 | 7.94 | O=C1/C(=C/c2cccc(O)c2O)CC/C1=C\c1cccc(O)c1O |  |  |  |
| ≥ 100 | 6.09 | O=C1/C(=C/c2cccc(O)c2)CCC/C1=C\c1cccc(O)c1 | Non-toxic | Toxic | Toxic |
| 75 | 13.9 | COc1cc(/C=C2\CC/C(=C\c3ccc(O)c(OC)c3)C2=O)ccc1O | Non-toxic | Toxic |  |
| 14.8 | 20.5 | O=C1/C(=C/c2ccc(O)c(O)c2)CC/C1=C\c1ccc(O)c(O)c1 |  |  |  |
| ≥ 100 | ≥ 50 | O=C1/C(=C/c2ccc(O)cc2)CC/C1=C\c1ccc(O)cc1 |  |  |  |
| ≥ 100 | 19.8 | COc1ccc(/C=C2\CCC/C(=C\c3ccc(OC)c(OC)c3)C2=O)cc1OC |  |  |  |
| ≥ 100 | 29.4 | O=C1/C(=C/c2ccc([N+](=O)[O-])cc2)CCC/C1=C\c1ccc([N+](=O)[O-])cc1 |  |  |  |
| ≥ 100 | ≥ 50 | O=C1/C(=C/c2ccc(F)cc2)CC/C1=C\c1ccc(F)cc1 |  |  |  |
| ≥ 100 | ≥ 50 | O=C1/C(=C/c2ccc(F)cc2)CCC/C1=C\c1ccc(F)cc1 |  |  |  |
| ≥ 100 | 41.6 | O=C1/C(=C/c2ccc(O)cc2)CCC/C1=C\c1ccc(O)cc1 |  |  |  |
|  | 21.6 | COc1cc(/C=C/C(=O)CC(=O)/C=C/c2ccc(O)c(OC)c2)ccc1O [CURCUMIN] |  |  |  |
| 51.9 | 6.68 | COc1cc(/C=C2\CCC/C(=C\c3ccc(O)c(OC)c3)C2=O)ccc1O [CYCLOVALONE] | Non-toxic | Toxic |  |

| SMILES | IC50 [1] [µM] | IC50 (RAW264.7 [2]) [µM] | Activity (RAW264.7 [3]) | Activity (RAW264.7 [4]) | Activity (RAW264.7 [5]) |
| --- | --- | --- | --- | --- | --- |
| COC(=O)[C@@H](N)CCCNC(=N)N[N+](=O)[O-] [L-NAME] |  | 26.2 |  |  |  |
| O=c1c(O)c(-c2ccc(O)c(O)c2)oc2cc(O)cc(O)c12 [QUERCETIN] | 21.5 |  |  |  |  |
